In this assay the target is T1, Substance-K receptor (Homo sapiens, UniProt P21452).
T1 sequence (P21452 whole entry): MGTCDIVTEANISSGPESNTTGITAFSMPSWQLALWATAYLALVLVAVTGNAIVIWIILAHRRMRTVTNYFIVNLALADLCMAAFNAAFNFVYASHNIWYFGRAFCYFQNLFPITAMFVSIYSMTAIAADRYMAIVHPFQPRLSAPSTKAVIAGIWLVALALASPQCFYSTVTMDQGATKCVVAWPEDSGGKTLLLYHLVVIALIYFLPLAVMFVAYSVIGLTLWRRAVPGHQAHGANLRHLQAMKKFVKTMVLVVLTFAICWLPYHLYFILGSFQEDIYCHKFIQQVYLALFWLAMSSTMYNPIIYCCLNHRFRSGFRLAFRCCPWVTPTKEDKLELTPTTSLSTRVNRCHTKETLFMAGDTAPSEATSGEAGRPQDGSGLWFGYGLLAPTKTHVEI
Description: ChEBML_209037. An excerpt:
Displacement of [125I]NKA from human Tachykinin receptor 2 expressed in CHO cells

As usually defined, the Ki is the equilibrium dissociation constant of an inhibitor or competing ligand from its target. High values mean weaker binding, low ones tighter binding.

As for `CCOC(=O)C1C(C)OC2OC(COCc3ccccc3)C(OCc3ccccc3)C(=O)C2[S+]1[O-]` (stereo unspecified) [7-Benzyloxy-6-benzyloxymethyl-8-hydroxy-3-methyl-1-oxo-6,7,8,8a-tetrahydro-1H,4aH-4,5-dioxa-1lambda*4*-thia-naphthalene-2-carboxylic acid ethyl ester], affinity was put at a Ki of 790 nM.

(Values after BindingDB's records for doi:10.1016/s0960-894x(02)00471-7 (Universita' Di Firenze, 2002).)
